Test results as given in PubChem BioAssay (NCI).
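Compound exposure: 48 hours, 5 concentrations, 96-well plates. Here, GI50 denotes the concentration required for 50% inhibition of growth. Definition used: TGI = concentration required for complete inhibition of growth.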

Assays:
Experiment in all cases: NCI anticancer screen, dose series, 48 h
786-0 renal = system: 786-0 renal
A498 renal = system: A498 renal
ACHN renal = system: ACHN renal
BT-549 breast = system: BT-549 breast
CAKI-1 renal = system: CAKI-1 renal
CCRF-CEM leukemia = system: CCRF-CEM leukemia
DU-145 prostate = system: DU-145 prostate
EKVX NSCLC = system: EKVX NSCLC
HCC-2998 colon = system: HCC-2998 colon
HCT-116 colon = system: HCT-116 colon
HCT-15 colon = system: HCT-15 colon
HL-60(TB) leukemia = system: HL-60(TB) leukemia
HOP-92 NSCLC = system: HOP-92 NSCLC
K-562 leukemia = system: K-562 leukemia
KM12 colon = system: KM12 colon
MCF7 breast = system: MCF7 breast
MDA-MB-231 breast = system: MDA-MB-231 breast
MDA-MB-435 = system: MDA-MB-435
NCI/ADR-RES ovarian = system: NCI/ADR-RES ovarian
OVCAR-4 ovarian = system: OVCAR-4 ovarian
OVCAR-5 ovarian = system: OVCAR-5 ovarian
PC-3 prostate = system: PC-3 prostate
RPMI-8226 leukemia = system: RPMI-8226 leukemia
RXF 393 renal = system: RXF 393 renal
SF-295 CNS = system: SF-295 CNS
SF-539 CNS = system: SF-539 CNS
SK-MEL-28 melanoma = system: SK-MEL-28 melanoma
SK-MEL-5 melanoma = system: SK-MEL-5 melanoma
SK-OV-3 ovarian = system: SK-OV-3 ovarian
SN12C renal = system: SN12C renal
SNB-19 CNS = system: SNB-19 CNS
SNB-75 CNS = system: SNB-75 CNS
TK-10 renal = system: TK-10 renal
UACC-257 melanoma = system: UACC-257 melanoma
UACC-62 melanoma = system: UACC-62 melanoma
UO-31 renal = system: UO-31 renal

**Q.** Which GI50 (786-0 renal) does the source give for `COC[C@]12CCC(C)(C)C[C@H]1C1=CC[C@@H]3[C@@]4(C)CCCNC(C)(C)[C@@H]4CC[C@@]3(C)[C@]1(C)CC2` here?
**A.** Its GI50 is 1610 nM.

**Q.** What about the TGI (786-0 renal) of the same compound?
**A.** The TGI was 3.3 µM.

**Q.** What about the GI50 (A498 renal) of the same compound?
**A.** The GI50 was 1710 nM.

**Q.** What about the TGI (A498 renal) of the same compound?
**A.** The TGI was 3.23 µM.

**Q.** What about the GI50 (ACHN renal) of the same compound?
**A.** Its GI50 is 1730 nM.

**Q.** And the TGI (ACHN renal)?
**A.** The TGI was 3.12 µM.

**Q.** And the GI50 (BT-549 breast)?
**A.** The GI50 was 1680 nM.

**Q.** What about the TGI (BT-549 breast) of the same compound?
**A.** The TGI was 3.11 µM.

**Q.** What about the GI50 (CAKI-1 renal) of the same compound?
**A.** Its GI50 is 1820 nM.

**Q.** And the TGI (CAKI-1 renal)?
**A.** The TGI was 3.56 µM.

**Q.** What about the GI50 (CCRF-CEM leukemia) of the same compound?
**A.** Its GI50 is 1260 nM.

**Q.** What about the TGI (CCRF-CEM leukemia) of the same compound?
**A.** The TGI was 3.19 µM.

**Q.** And the GI50 (DU-145 prostate)?
**A.** The GI50 was 1810 nM.

**Q.** And the TGI (DU-145 prostate)?
**A.** Its TGI is 3.37 µM.

**Q.** And the GI50 (EKVX NSCLC)?
**A.** Its GI50 is 1640 nM.

**Q.** And the TGI (EKVX NSCLC)?
**A.** The TGI was 3.12 µM.

**Q.** And the GI50 (HCC-2998 colon)?
**A.** The GI50 was 1310 nM.

**Q.** And the TGI (HCC-2998 colon)?
**A.** Its TGI is 2760 nM.

**Q.** And the GI50 (HCT-116 colon)?
**A.** The GI50 was 1090 nM.

**Q.** And the TGI (HCT-116 colon)?
**A.** Its TGI is 2480 nM.

**Q.** What about the GI50 (HCT-15 colon) of the same compound?
**A.** The GI50 was 1410 nM.

**Q.** And the TGI (HCT-15 colon)?
**A.** Its TGI is 2870 nM.

**Q.** And the GI50 (HL-60(TB) leukemia)?
**A.** The GI50 was 1430 nM.

**Q.** And the TGI (HL-60(TB) leukemia)?
**A.** Its TGI is 3.87 µM.

**Q.** And the GI50 (HOP-92 NSCLC)?
**A.** Its GI50 is 1170 nM.

**Q.** What about the TGI (HOP-92 NSCLC) of the same compound?
**A.** Its TGI is 2580 nM.

**Q.** What about the GI50 (K-562 leukemia) of the same compound?
**A.** The GI50 was 350 nM.

**Q.** What about the TGI (K-562 leukemia) of the same compound?
**A.** The TGI was 4.65 µM.

**Q.** What about the GI50 (KM12 colon) of the same compound?
**A.** The GI50 was 1790 nM.

**Q.** What about the TGI (KM12 colon) of the same compound?
**A.** The TGI was 3.48 µM.

**Q.** And the GI50 (MCF7 breast)?
**A.** Its GI50 is 1250 nM.

**Q.** And the TGI (MCF7 breast)?
**A.** The TGI was 2820 nM.

**Q.** What about the GI50 (MDA-MB-231 breast) of the same compound?
**A.** Its GI50 is 1890 nM.

**Q.** What about the TGI (MDA-MB-231 breast) of the same compound?
**A.** The TGI was 3.62 µM.

**Q.** And the GI50 (MDA-MB-435)?
**A.** Its GI50 is 1660 nM.

**Q.** And the TGI (MDA-MB-435)?
**A.** Its TGI is 3.13 µM.

**Q.** And the GI50 (NCI/ADR-RES ovarian)?
**A.** Its GI50 is 1730 nM.

**Q.** And the TGI (NCI/ADR-RES ovarian)?
**A.** The TGI was 3.48 µM.

**Q.** What about the GI50 (OVCAR-4 ovarian) of the same compound?
**A.** Its GI50 is 1700 nM.

**Q.** And the TGI (OVCAR-4 ovarian)?
**A.** The TGI was 3.34 µM.

**Q.** What about the GI50 (OVCAR-5 ovarian) of the same compound?
**A.** The GI50 was 1670 nM.

**Q.** What about the TGI (OVCAR-5 ovarian) of the same compound?
**A.** The TGI was 3.13 µM.

**Q.** And the GI50 (PC-3 prostate)?
**A.** Its GI50 is 1310 nM.

**Q.** And the TGI (PC-3 prostate)?
**A.** The TGI was 2640 nM.

**Q.** And the GI50 (RPMI-8226 leukemia)?
**A.** Its GI50 is 1310 nM.

**Q.** What about the TGI (RPMI-8226 leukemia) of the same compound?
**A.** The TGI was 3.65 µM.

**Q.** And the GI50 (RXF 393 renal)?
**A.** The GI50 was 1370 nM.

**Q.** What about the TGI (RXF 393 renal) of the same compound?
**A.** Its TGI is 2880 nM.

**Q.** And the GI50 (SF-295 CNS)?
**A.** The GI50 was 1730 nM.

**Q.** And the TGI (SF-295 CNS)?
**A.** Its TGI is 3.21 µM.

**Q.** And the GI50 (SF-539 CNS)?
**A.** Its GI50 is 1560 nM.

**Q.** What about the TGI (SF-539 CNS) of the same compound?
**A.** The TGI was 3.05 µM.

**Q.** And the GI50 (SK-MEL-28 melanoma)?
**A.** Its GI50 is 1670 nM.

**Q.** What about the TGI (SK-MEL-28 melanoma) of the same compound?
**A.** Its TGI is 3.07 µM.

**Q.** And the GI50 (SK-MEL-5 melanoma)?
**A.** Its GI50 is 1580 nM.

**Q.** What about the TGI (SK-MEL-5 melanoma) of the same compound?
**A.** Its TGI is 3.05 µM.

**Q.** And the GI50 (SK-OV-3 ovarian)?
**A.** Its GI50 is 1800 nM.

**Q.** What about the TGI (SK-OV-3 ovarian) of the same compound?
**A.** Its TGI is 3.39 µM.

**Q.** And the GI50 (SN12C renal)?
**A.** The GI50 was 1510 nM.

**Q.** What about the TGI (SN12C renal) of the same compound?
**A.** The TGI was 3.07 µM.

**Q.** What about the GI50 (SNB-19 CNS) of the same compound?
**A.** Its GI50 is 1760 nM.

**Q.** And the TGI (SNB-19 CNS)?
**A.** The TGI was 3.3 µM.

**Q.** And the GI50 (SNB-75 CNS)?
**A.** Its GI50 is 1530 nM.

**Q.** What about the TGI (SNB-75 CNS) of the same compound?
**A.** Its TGI is 3.41 µM.

**Q.** And the GI50 (TK-10 renal)?
**A.** The GI50 was 1810 nM.

**Q.** And the TGI (TK-10 renal)?
**A.** The TGI was 3.53 µM.

**Q.** What about the GI50 (UACC-257 melanoma) of the same compound?
**A.** The GI50 was 1910 nM.

**Q.** What about the TGI (UACC-257 melanoma) of the same compound?
**A.** Its TGI is 3.82 µM.

**Q.** What about the GI50 (UACC-62 melanoma) of the same compound?
**A.** The GI50 was 1620 nM.

**Q.** What about the TGI (UACC-62 melanoma) of the same compound?
**A.** The TGI was 3.12 µM.

**Q.** And the GI50 (UO-31 renal)?
**A.** The GI50 was 1410 nM.

**Q.** And the TGI (UO-31 renal)?
**A.** Its TGI is 2790 nM.
